Numbers after ± are expanded uncertainties.
Assay: xn = mol fraction of the nth substance listed
Details: 102.24 kPa, Liquid; for speed of sound: Frequency=5 MHz, Single path-length method; for mass density: Vibrating tube method

CCC(=O)[O-].C[NH2+]CCO [2-hydroxy-N-methylethanaminium propionate] + O
Details	mass density [kg/m3]	speed of sound [m/s]
298.15 K, x1 = 0.02	1016.8 ± 1.7	1628.3 ± 8.1
298.15 K, x1 = 0.0501	1039.1 ± 1.7	1746.5 ± 8
298.15 K, x1 = 0.1001	1056.2 ± 1.7	1820.9 ± 8
298.15 K, x1 = 0.101	1055.8 ± 1.7	1818.1 ± 8
298.15 K, x1 = 0.2006	1072.5 ± 1.7	1827.2 ± 8
298.15 K, x1 = 0.301	1072.6 ± 1.7	1790.1 ± 8
298.15 K, x1 = 0.3978	1074 ± 1.7	1757 ± 8
298.15 K, x1 = 0.4976	1072.3 ± 1.7	1726.2 ± 8
298.15 K, x1 = 0.5972	1071.9 ± 1.7	1721 ± 8
298.15 K, x1 = 0.8006	1068.7 ± 1.7	1684.5 ± 8
298.15 K, x1 = 1	1065.8 ± 1.7	1638.4 ± 8.1
303.15 K, x1 = 0.02	1013.4 ± 1.7	1630.6 ± 8.1
303.15 K, x1 = 0.0501	1036.3 ± 1.7	1741.6 ± 8
303.15 K, x1 = 0.1001	1053.4 ± 1.7	1810.8 ± 8
303.15 K, x1 = 0.101	1052.8 ± 1.7	1807 ± 8
303.15 K, x1 = 0.2006	1069.5 ± 1.7	1812.4 ± 8
303.15 K, x1 = 0.301	1069.5 ± 1.7	1775.9 ± 8
303.15 K, x1 = 0.3978	1070.9 ± 1.7	1742.3 ± 8
303.15 K, x1 = 0.4976	1069.2 ± 1.7	1711 ± 8
303.15 K, x1 = 0.5972	1068.7 ± 1.7	1705.5 ± 8
303.15 K, x1 = 0.8006	1065.4 ± 1.7	1668.3 ± 8
303.15 K, x1 = 1	1062.6 ± 1.7	1624.6 ± 8.1
308.15 K, x1 = 0.02	1010 ± 1.7	1632.8 ± 8
308.15 K, x1 = 0.0501	1033.5 ± 1.7	1736.7 ± 8
308.15 K, x1 = 0.1001	1050.7 ± 1.7	1800.7 ± 8
308.15 K, x1 = 0.101	1049.9 ± 1.7	1795.9 ± 8
308.15 K, x1 = 0.2006	1066.5 ± 1.7	1797.6 ± 8
308.15 K, x1 = 0.301	1066.4 ± 1.7	1761.6 ± 8
308.15 K, x1 = 0.3978	1067.9 ± 1.7	1727.6 ± 8
308.15 K, x1 = 0.4976	1066.1 ± 1.7	1695.7 ± 8
308.15 K, x1 = 0.5972	1065.6 ± 1.7	1689.9 ± 8
308.15 K, x1 = 0.8006	1062.2 ± 1.7	1652 ± 8
308.15 K, x1 = 1	1059.4 ± 1.7	1607 ± 8.1
313.15 K, x1 = 0.02	1006.6 ± 1.7	1635.1 ± 8
313.15 K, x1 = 0.0501	1030.6 ± 1.7	1731.8 ± 8
313.15 K, x1 = 0.1001	1047.9 ± 1.7	1790.6 ± 8
313.15 K, x1 = 0.101	1046.9 ± 1.7	1784.7 ± 8
313.15 K, x1 = 0.2006	1063.5 ± 1.7	1782.8 ± 8
313.15 K, x1 = 0.301	1063.3 ± 1.7	1747.4 ± 8
313.15 K, x1 = 0.3978	1064.8 ± 1.7	1712.8 ± 8
313.15 K, x1 = 0.4976	1063 ± 1.7	1680.5 ± 8
313.15 K, x1 = 0.5972	1062.5 ± 1.7	1674.4 ± 8
313.15 K, x1 = 0.8006	1059 ± 1.7	1635.7 ± 8
313.15 K, x1 = 1	1056.2 ± 1.7	1588.5 ± 8.1
318.15 K, x1 = 0.02	1003.2 ± 1.7	1637.4 ± 8
318.15 K, x1 = 0.0501	1027.8 ± 1.7	1726.9 ± 8
318.15 K, x1 = 0.1001	1045.2 ± 1.7	1780.5 ± 8
318.15 K, x1 = 0.101	1043.9 ± 1.7	1773.6 ± 8
318.15 K, x1 = 0.2006	1060.5 ± 1.7	1768 ± 8
318.15 K, x1 = 0.301	1060.2 ± 1.7	1733.1 ± 8
318.15 K, x1 = 0.3978	1061.8 ± 1.7	1698.1 ± 8
318.15 K, x1 = 0.4976	1059.8 ± 1.7	1665.2 ± 8
318.15 K, x1 = 0.5972	1059.4 ± 1.7	1658.8 ± 8
318.15 K, x1 = 0.8006	1055.8 ± 1.7	1619.5 ± 8
318.15 K, x1 = 1	1053 ± 1.7	1573.2 ± 8.1
323.15 K, x1 = 0.02	999.8 ± 1.7	1639.6 ± 8
323.15 K, x1 = 0.0501	1025 ± 1.7	1722 ± 8
323.15 K, x1 = 0.1001	1042.4 ± 1.7	1770.4 ± 8
323.15 K, x1 = 0.101	1040.9 ± 1.7	1762.5 ± 8
323.15 K, x1 = 0.2006	1057.5 ± 1.7	1753.2 ± 8
323.15 K, x1 = 0.301	1057.1 ± 1.7	1718.9 ± 8
323.15 K, x1 = 0.3978	1058.7 ± 1.7	1683.3 ± 8
323.15 K, x1 = 0.4976	1056.7 ± 1.7	1650 ± 8
323.15 K, x1 = 0.5972	1056.2 ± 1.7	1643.3 ± 8
323.15 K, x1 = 0.8006	1052.6 ± 1.7	1603.2 ± 8
323.15 K, x1 = 1	1049.8 ± 1.7	1558.3 ± 8.1
328.15 K, x1 = 0.02	996.4 ± 1.7	1641.9 ± 8
328.15 K, x1 = 0.0501	1022.2 ± 1.7	1717.1 ± 8
328.15 K, x1 = 0.1001	1039.7 ± 1.7	1760.3 ± 8
328.15 K, x1 = 0.101	1037.9 ± 1.7	1751.4 ± 8
328.15 K, x1 = 0.2006	1054.5 ± 1.7	1738.3 ± 8
328.15 K, x1 = 0.301	1054 ± 1.7	1704.6 ± 8
328.15 K, x1 = 0.3978	1055.6 ± 1.7	1668.6 ± 8
328.15 K, x1 = 0.4976	1053.6 ± 1.7	1634.8 ± 8
328.15 K, x1 = 0.5972	1053.1 ± 1.7	1627.8 ± 8
328.15 K, x1 = 0.8006	1049.3 ± 1.7	1587 ± 8
328.15 K, x1 = 1	1046.5 ± 1.7	1543.7 ± 8.1
333.15 K, x1 = 0.02	993 ± 1.7	1644.1 ± 8
333.15 K, x1 = 0.0501	1019.4 ± 1.7	1712.2 ± 8
333.15 K, x1 = 0.1001	1036.9 ± 1.7	1750.3 ± 8
333.15 K, x1 = 0.101	1035 ± 1.7	1740.3 ± 8
333.15 K, x1 = 0.2006	1051.5 ± 1.7	1723.5 ± 8
333.15 K, x1 = 0.301	1051 ± 1.7	1690.4 ± 8
333.15 K, x1 = 0.3978	1052.6 ± 1.7	1653.9 ± 8
333.15 K, x1 = 0.4976	1050.5 ± 1.7	1619.5 ± 8
333.15 K, x1 = 0.5972	1050 ± 1.7	1612.2 ± 8
333.15 K, x1 = 0.8006	1046.1 ± 1.7	1570.7 ± 8
333.15 K, x1 = 1	1043.2 ± 1.7	1527 ± 8.1

— the NIST ThermoML archive (doi:10.1016/j.jct.2015.04.005)
